Measurements from patent US9050269B2, “Protection of virus particles from phagocytosis by expression of CD47” (priority 2009, dated 2015).
pIC50, pKi: −log10 of the molar value.

Key:
SHP-1 = SHP-1 (Homo sapiens, UniProt P29350); conditions: reported, Chen et al., 2006; cited from earlier work
THP-1 macrophages [1] = experiment: SHP-1 inhibitor effect on phagocytosis of IgG-opsonized particles; assay type: cell-based, human
Procedure: For phagocytosis assays with CD47 attached particles at 100 nm to 1.1 μm diameter were IgG-opsonizied. THP-1 macrophage, PMA activated were treated with 0-0.5 μM NSC-87877 an SHP-1 Inhibitor (gift from Frank L. Conlon) 5 minutes prior to the addition of IgG-opsonizied particles. Phagocytosis assay occurred at 37° C. for 45 minutes and then fixed for 5 minutes with 5% formaldehyde as described for the phagocytosis assay (Fisher Scientific).
In order to specifically block SHP-1, an inhibitor NSC-87877 was used with a reported high specificity to SHP-1 (Chen et al., 2006, Mol. Pharmacol. 70(2):562-70; Langdon et al., 2007, Development 134(22):4119-30). […] The uptake of these particles was measured as the number of particles ingested per phagocyte.

THP-1 macrophages [2] = assay type: cell-based, human
[3] = tested on: non-muscle myosin IIA at the phagocytic synapse of THP-1 macrophages; experiment: Protein localization to the phagocytic synapse (immunofluorescence); assay type: cell-based, human; conditions: blebbistatin 50 μM, 10 min pre-incubation
Procedure: […] Opsonized beads of different sizes were added to THP-1 cells, PMA treated and immediately placed at 4° C. for 10 min to synchronize phagocytosis. […] For studies involving blebbistatin (EMD Biosciences), macrophages were treated for 10 min at 4° C. prior to temperature increase to 37° C. or for 45 min and 37° C. Macrophages treated with DMSO were used to verify no solvent effects.
Immunostaining was performed by permeabilization with 0.1% Triton X-100 in PBS for 20 min before blocking for 1 h with 5% BSA in PBS. Staining with primary antibodies was carried out for 1 h at room temperature in PBS. Following washing, samples were incubated with appropriate PE-conjugated secondary antibodies (1:1000). To label cytoskeletal proteins at the phagocytic synapse, primary Ab's prepared with Zenon Alexa 488 or Zenon Alexa 647 Fab labeling kits (Invitrogen) labeled for 45 min at room temperature. Cells were immediately fixed using 5% formaldehyde for 20 minutes and washed with PBS. Samples were analyzed by differential interference contrast (DIC) and fluorescence microscopy.
Images were acquired with an inverted microscope (Olympus; IX71) with a 60× (oil, 1.4 NA) objective using a Cascade CCD camera (Photometrics, Tuscon, Ariz.). Image acquisition was performed with Image Pro software (Media Cybernetics, Silver Spring, Md.). […]

THP-1 macrophages [4] = experiment: Phagocytosis of IgG-opsonized sheep RBCs by THP-1 macrophages; assay type: cell-based, human
Text: Phagocytosis by the human-derived THP-1 macrophages of IgG-opsonized RBCs was studied by imaging in DIC microscopy. […] RBC membranes were prelabeled with PKH26, and non-engulfed RBCs were labeled with a fluorescein-labeled antibody against the Fc of the IgG-opsonin.
To more directly assess the function of the IIA isoform, the effects of both knockdown and overexpression were functionally studied.

THP-1 macrophages [5] = experiment: Phagocytosis of IgG-opsonized streptavidin beads with or without hCD47 by THP-1 macrophages; assay type: cell-based, human
Procedure: The extracellular immunoglobulin-like domains of human CD47 (hCD47) was recombinantly expressed with a spacer domain (Brown et al., 1994, Protein Eng. 7:515-21; Brown et al., 1998, J. Exp. Med. 188:2083-90) plus a C-terminal biotinylation site. […] The beads were opsonized by pretreatment with anti-streptavidin to again induce FcR-mediated phagocytosis (for 45 minutes at 37° C.), and non-engulfed beads were detected with a flourescein anti-Fc against the IgG-opsonin. The number of adherent IgG-opsonized beads per phagocyte was independent of hCD47 (not shown).
Human CD47 gave a Ki at high opsonin of 20 CD47/μm^2, which appears ˜10-fold less than normal human RBC densities of CD47. […] A higher baseline level of bead phagocytosis versus RBCs could redirect the fact that stiffer targets are more readily engulfed (Beningo et al., 2002, J. Cell Sci. 115:849-856).
For phagocytosis assays, macrophages were plated in 4 cm^2, or 2 cm^2 Lab-Tek II Chambered Coverglass (Nalge Nunc International, Naperville, Ill.) at 1.5×10^5/cm^2. Streptavidin polystyrene beads of different radius: 3.5 μm, 1.1 μm, 160 nm (Spherotech) and 100 nm (Ademtech) were added to macrophages at a ratio of 2:1, 20:1, 277:1, and 2206:1 respectively and incubate at 37° C. for 45 min. […] Non-phagocytosed beads were washed with PBS. Cells were fixed with 5% formaldehyde (Fisher Scientific) for 5 minutes, followed by immediate replacement with PBS. For differentiation of non-internalized beads, beads were labeled with a primary antibody, rabbit anti-streptavidin (Sigma) at 1:1000 in PBS for 20 min at 25° C. A second antibody, anti-rabbit R-PE (Sigma) was added at 1:1000 in PBS to the cells and incubated for an additional 20 minutes at 25° C. Cells were then washed with PBS/0.4% BSA and then quantified by light and fluorescent microscopy. At least 200 cells were scored per well and experiments were repeated at least three times. […]
Beads were opsonized at saturating densities of IgG, and over a 20-fold range of CD47 densities, the number of internalized beads per THP-1 was measured. […]

[6] = tested on: A549 human lung epithelial cells; assay type: cell-based; conditions: blebbistatin at various concentrations; MOI 270

Sequence of SHP-1 (P29350 whole entry): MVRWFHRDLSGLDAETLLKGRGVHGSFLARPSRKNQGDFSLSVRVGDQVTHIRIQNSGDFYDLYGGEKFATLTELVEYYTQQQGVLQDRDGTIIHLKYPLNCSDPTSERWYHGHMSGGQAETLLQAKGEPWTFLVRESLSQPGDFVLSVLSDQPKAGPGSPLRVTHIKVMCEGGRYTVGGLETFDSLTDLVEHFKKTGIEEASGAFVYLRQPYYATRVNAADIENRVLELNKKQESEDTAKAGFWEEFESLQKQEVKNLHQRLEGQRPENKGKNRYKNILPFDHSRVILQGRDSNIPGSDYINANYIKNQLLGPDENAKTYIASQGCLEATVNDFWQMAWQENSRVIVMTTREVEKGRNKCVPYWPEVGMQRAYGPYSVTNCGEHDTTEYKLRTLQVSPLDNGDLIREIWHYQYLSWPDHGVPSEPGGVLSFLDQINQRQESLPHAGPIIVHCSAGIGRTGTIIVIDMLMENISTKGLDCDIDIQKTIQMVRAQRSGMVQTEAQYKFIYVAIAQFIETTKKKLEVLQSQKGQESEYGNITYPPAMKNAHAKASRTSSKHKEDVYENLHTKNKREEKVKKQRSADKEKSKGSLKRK

## O=S(=O)(O)c1ccc2cc(N=Nc3cc(S(=O)(=O)O)c4cccnc4c3O)ccc2c1 [NSC-87877]
SHP-1
  pIC50: 6.30
THP-1 macrophages [1]; 62.5 nM NSC-87877, 100 nm IgG-opsonized particles with hCD47
  particles ingested per phagocyte, hCD47 particles: an increase of ingested particles
THP-1 macrophages [1]; 62.5 nM NSC-87877, 100 nm IgG-opsonized particles without hCD47
  particles ingested per phagocyte, beads without hCD47: no statistical difference
THP-1 macrophages [1]; NSC-87877, 1.1 μm IgG-opsonized particles with hCD47
  particles ingested per phagocyte, hCD47 particles: increase in uptake comparable to uncoated IgG-opsonizied particles

## Cc1ccc2c(c1)C(=O)C1(O)CCN(c3ccccc3)C1=N2 (stereo not drawn) [blebbistatin]
THP-1 macrophages [2]; 50 μM Blebbistatin vs DMSO
  transduction of control lentiviral particles: inhibited transduction
  transduction of overexpressed hCD47 lentiviral particles: no changes were observed
THP-1 macrophages [2]; blebbistatin at various concentrations, MOI 700
  transduction efficiency of control lentivirus: dose dependent response
[3]
  enrichment of NMM IIA at synaptic contacts with sheep RBC targets: inhibited enrichment of NMM IIA
THP-1 macrophages [4]; 5 μM blebbistatin
  inhibition of ShRBC phagocytosis by GFP-NMM IIA expressing THP-1: ~50%
THP-1 macrophages [4]; compared with CD47 on human RBCs
  engulfment of sheep RBCs by THP-1 macrophages: inhibited
THP-1 macrophages [4]; dose-response, sheep RBCs engulfed by THP-1 macrophages, read-out: Ki-blebb for blebbistatin inhibition of phagocytosis
  pKi: 5.30
THP-1 macrophages [5]; 50 μM blebbistatin, 100 nm particles, vs DMSO
  uptake of IgG-opsonized particles by THP-1: decrease in uptake
THP-1 macrophages [5]; blebbistatin, 1.1 μm particles
  uptake of IgG-opsonized particles by THP-1: comparable results
THP-1 macrophages [5]; blebbistatin, uncoated approximately 2.1 μm beads
  phagocytosis of CD47-null beads: inhibited phagocytosis of CD47-null beads to a level similar as hCD47 beads
[6]
  lentivirus transduction in A549 cells: no effect
